Data: PubChem BioAssay AID1963447 (Molecular Pharmacology Branch, DTP, NCI, 2024)

Test system: 885512-296-R-J2-PDC complex spheroid growth, % test/control
Assay: Anticancer human tumor 885512-296-R-J2-PDC patient-derived breast carcinoma cell line growth inhibition [Asc]
Settings: for IC50: curve of first compound; for viability, T/C: stronger effect = lower value
Summary of the method: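 Concentration series start at each agent's clinical Cmax, or at 10 microM when none is established, and drop in half-log steps; agents are applied alone or together to complex spheroids built with HUVEC and hMSC.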

[1] = second compound 0.03 µM, first compound 0.0316 µM
[2] = second compound 0.03 µM, first compound 0.1 µM
[3] = second compound 0.03 µM, first compound 0.316 µM
[4] = second compound 0.03 µM, first compound 1 µM
[5] = second compound 0.03 µM, first compound 3.16 µM
[6] = second compound 0.03 µM, first compound 10 µM
[7] = second compound 0.0949 µM, first compound 0.0316 µM
[8] = second compound 0.0949 µM, first compound 0.1 µM
[9] = second compound 0.0949 µM, first compound 0.316 µM
[10] = second compound 0.0949 µM, first compound 1 µM
[11] = second compound 0.0949 µM, first compound 3.16 µM
[12] = second compound 0.0949 µM, first compound 10 µM
[13] = second compound 0.3 µM, first compound 0.0316 µM
[14] = second compound 0.3 µM, first compound 0.1 µM
[15] = second compound 0.3 µM, first compound 0.316 µM
[16] = second compound 0.3 µM, first compound 1 µM
[17] = second compound 0.3 µM, first compound 3.16 µM
[18] = second compound 0.3 µM, first compound 10 µM
[19] = second compound 0.949 µM, first compound 0.0316 µM
[20] = second compound 0.949 µM, first compound 0.1 µM
[21] = second compound 0.949 µM, first compound 0.316 µM
[22] = second compound 0.949 µM, first compound 1 µM
[23] = second compound 0.949 µM, first compound 3.16 µM
[24] = second compound 0.949 µM, first compound 10 µM
[25] = second compound 3 µM, first compound 0.0316 µM
[26] = second compound 3 µM, first compound 0.1 µM
[27] = second compound 3 µM, first compound 0.316 µM
[28] = second compound 3 µM, first compound 1 µM
[29] = second compound 3 µM, first compound 3.16 µM
[30] = second compound 3 µM, first compound 10 µM
[31] = second compound 0.03 µM, first compound 0.00316 µM
[32] = second compound 0.03 µM, first compound 0.01 µM
[33] = second compound 0.0949 µM, first compound 0.00316 µM
[34] = second compound 0.0949 µM, first compound 0.01 µM
[35] = second compound 0.3 µM, first compound 0.00316 µM
[36] = second compound 0.3 µM, first compound 0.01 µM
[37] = second compound 0.949 µM, first compound 0.00316 µM
[38] = second compound 0.949 µM, first compound 0.01 µM
[39] = second compound 3 µM, first compound 0.00316 µM
[40] = second compound 3 µM, first compound 0.01 µM
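Also: spheroids exposed to compounds for seven days.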
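For viability, T/C in this document: 100% = DMSO vehicle control wells.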

C#Cc1c(F)ccc2cc(O)cc(-c3ncc4c(N5CC6CCC(C5)N6)nc(OCC56CCCN5CC(F)C6)nc4c3F)c12 (stereo not given) + CCN1C(C(=O)NC23CCC(C(=O)O)(CC2)CC3)C(c2cccc(Cl)c2F)C2(C(=O)Nc3cc(Cl)ccc32)C12CCCCC2
IC50 (second compound 0.03 µM): > 10000 nM
IC50 (second compound 0.0949 µM): > 10000 nM
IC50 (second compound 0.3 µM): > 10000 nM
IC50 (second compound 0.949 µM): > 10000 nM
IC50 (second compound 3 µM): < 31.6 nM
viability, T/C [1]: 105%
viability, T/C [2]: 98%
viability, T/C [3]: 107%
viability, T/C [4]: 82.8%
viability, T/C [5]: 107%
viability, T/C [6]: 80.3%
viability, T/C [7]: 117%
viability, T/C [8]: 101%
viability, T/C [9]: 91.4%
viability, T/C [10]: 89.1%
viability, T/C [11]: 95.6%
viability, T/C [12]: 83.2%
viability, T/C [13]: 95.7%
viability, T/C [14]: 86.5%
viability, T/C [15]: 93.3%
viability, T/C [16]: 82.4%
viability, T/C [17]: 78.3%
viability, T/C [18]: 88.7%
viability, T/C [19]: 80.5%
viability, T/C [20]: 59.9%
viability, T/C [21]: 69.1%
viability, T/C [22]: 64.7%
viability, T/C [23]: 70%
viability, T/C [24]: 84.7%
viability, T/C [25]: 53.7%
viability, T/C [26]: 42.1%
viability, T/C [27]: 38%
viability, T/C [28]: 43.5%
viability, T/C [29]: 51.2%
viability, T/C [30]: 61.7%

C=C(F)C(=O)N1CCN(c2nc(OCC3CCCN3C)nc3c2CCN(c2cccc4cccc(Cl)c24)C3)CC1CC#N (stereo not given) + CCN1C(C(=O)NC23CCC(C(=O)O)(CC2)CC3)C(c2cccc(Cl)c2F)C2(C(=O)Nc3cc(Cl)ccc32)C12CCCCC2
IC50 (second compound 0.03 µM): 2290 nM
IC50 (second compound 0.0949 µM): 2460 nM
IC50 (second compound 0.3 µM): 2240 nM
IC50 (second compound 0.949 µM): 1900 nM
IC50 (second compound 3 µM): 1050 nM
viability, T/C [1]: 96.3%
viability, T/C [2]: 110%
viability, T/C [3]: 101%
viability, T/C [4]: 110%
viability, T/C [5]: 28.6%
viability, T/C [6]: 0.11%
viability, T/C [7]: 118%
viability, T/C [8]: 117%
viability, T/C [9]: 120%
viability, T/C [10]: 107%
viability, T/C [11]: 34%
viability, T/C [12]: 0.38%
viability, T/C [13]: 94%
viability, T/C [14]: 95.1%
viability, T/C [15]: 98.2%
viability, T/C [16]: 102%
viability, T/C [17]: 29.5%
viability, T/C [18]: 0.1%
viability, T/C [19]: 69%
viability, T/C [20]: 72%
viability, T/C [21]: 76.9%
viability, T/C [22]: 90.1%
viability, T/C [23]: 28.6%
viability, T/C [24]: 0.1%
viability, T/C [25]: 43%
viability, T/C [26]: 43.3%
viability, T/C [27]: 51.5%
viability, T/C [28]: 67.5%
viability, T/C [29]: 19.8%
viability, T/C [30]: 0.15%

C=CC(=O)N1CCN(c2nc(=O)n(-c3c(C)ccnc3C(C)C)c3nc(-c4c(O)cccc4F)c(F)cc23)C(C)C1 (stereo not given) + CCN1C(C(=O)NC23CCC(C(=O)O)(CC2)CC3)C(c2cccc(Cl)c2F)C2(C(=O)Nc3cc(Cl)ccc32)C12CCCCC2
IC50 (second compound 0.03 µM): > 10000 nM
IC50 (second compound 0.0949 µM): > 10000 nM
IC50 (second compound 0.3 µM): > 10000 nM
IC50 (second compound 0.949 µM): > 10000 nM
IC50 (second compound 3 µM): < 31.6 nM
viability, T/C [1]: 93.7%
viability, T/C [2]: 96.8%
viability, T/C [3]: 111%
viability, T/C [4]: 112%
viability, T/C [5]: 101%
viability, T/C [6]: 61.3%
viability, T/C [7]: 73.5%
viability, T/C [8]: 108%
viability, T/C [9]: 114%
viability, T/C [10]: 108%
viability, T/C [11]: 96.3%
viability, T/C [12]: 64%
viability, T/C [13]: 89.8%
viability, T/C [14]: 88.3%
viability, T/C [15]: 117%
viability, T/C [16]: 95.3%
viability, T/C [17]: 101%
viability, T/C [18]: 72%
viability, T/C [19]: 68.7%
viability, T/C [20]: 71.2%
viability, T/C [21]: 70%
viability, T/C [22]: 86.9%
viability, T/C [23]: 91.8%
viability, T/C [24]: 61%
viability, T/C [25]: 38.8%
viability, T/C [26]: 52.6%
viability, T/C [27]: 46.4%
viability, T/C [28]: 61.1%
viability, T/C [29]: 58.5%
viability, T/C [30]: 52.2%

CNC(C)C(=O)NC1CN(S(=O)(=O)c2cccc(S(=O)(=O)N3CCC4CCC(C(=O)NC(c5ccccc5)c5ccccc5)N4C(=O)C(NC(=O)C(C)NC)C3)c2)CCC2CCC(C(=O)NC(c3ccccc3)c3ccccc3)N2C1=O (stereo not given) + CCN1C(C(=O)NC23CCC(C(=O)O)(CC2)CC3)C(c2cccc(Cl)c2F)C2(C(=O)Nc3cc(Cl)ccc32)C12CCCCC2
IC50 (second compound 0.03 µM): > 1000 nM
IC50 (second compound 0.0949 µM): > 1000 nM
IC50 (second compound 0.3 µM): > 1000 nM
IC50 (second compound 0.949 µM): > 1000 nM
IC50 (second compound 3 µM): < 3.16 nM
viability, T/C [31]: 92.3%
viability, T/C [32]: 90.4%
viability, T/C [1]: 99.8%
viability, T/C [2]: 94.2%
viability, T/C [3]: 126%
viability, T/C [4]: 109%
viability, T/C [33]: 77.6%
viability, T/C [34]: 110%
viability, T/C [7]: 90.3%
viability, T/C [8]: 112%
viability, T/C [9]: 120%
viability, T/C [10]: 115%
viability, T/C [35]: 84.3%
viability, T/C [36]: 88.7%
viability, T/C [13]: 91.6%
viability, T/C [14]: 93%
viability, T/C [15]: 103%
viability, T/C [16]: 112%
viability, T/C [37]: 75.3%
viability, T/C [38]: 72.8%
viability, T/C [19]: 76.6%
viability, T/C [20]: 87.6%
viability, T/C [21]: 91.9%
viability, T/C [22]: 86.6%
viability, T/C [39]: 41.4%
viability, T/C [40]: 37.4%
viability, T/C [25]: 49%
viability, T/C [26]: 59.5%
viability, T/C [27]: 59%
viability, T/C [28]: 62.6%

COc1c(OCCCN2CCOCC2)ccc2c3n(c(=NC(=O)c4cnc(N)nc4)nc12)CCN3 + CCN1C(C(=O)NC23CCC(C(=O)O)(CC2)CC3)C(c2cccc(Cl)c2F)C2(C(=O)Nc3cc(Cl)ccc32)C12CCCCC2
IC50 (second compound 0.03 µM): 285 nM
IC50 (second compound 0.0949 µM): 259 nM
IC50 (second compound 0.3 µM): 204 nM
IC50 (second compound 0.949 µM): 126 nM
IC50 (second compound 3 µM): < 3.16 nM
viability, T/C [31]: 80.1%
viability, T/C [32]: 87.9%
viability, T/C [1]: 93.5%
viability, T/C [2]: 72.6%
viability, T/C [3]: 48.3%
viability, T/C [4]: 6.36%
viability, T/C [33]: 73.7%
viability, T/C [34]: 88.1%
viability, T/C [7]: 79.8%
viability, T/C [8]: 64.7%
viability, T/C [9]: 47.4%
viability, T/C [10]: 6.12%
viability, T/C [35]: 82.7%
viability, T/C [36]: 68.5%
viability, T/C [13]: 80.1%
viability, T/C [14]: 63.2%
viability, T/C [15]: 41.2%
viability, T/C [16]: 6.26%
viability, T/C [37]: 61.5%
viability, T/C [38]: 54.5%
viability, T/C [19]: 64.4%
viability, T/C [20]: 50%
viability, T/C [21]: 38.8%
viability, T/C [22]: 6.82%
viability, T/C [39]: 47.1%
viability, T/C [40]: 32.4%
viability, T/C [25]: 28.6%
viability, T/C [26]: 35.4%
viability, T/C [27]: 32.6%
viability, T/C [28]: 6.56%
